Experimental data published in patent EP0287819A1, “5-(phenyl or phenoxyalkyl)-3-(2-furanyl or 2-thienyl)-3-(1H-imidazol-1-ylmethyl)-2-methylisoxazolidines” (FISONS CORPORATION, priority 1987, dated 1988).
In brackets after ≈: the same amount, converted by molar mass.

Experiments:
Test in all cases: in vitro antifungal activity, broth and agar testing techniques
Assay type in all cases: cell-based
Trichophyton tonsurans = system: Trichophyton tonsurans
Excerpt: (§1) The compounds of this invention are useful as antifungal agents.

[1] = system: Trichophyton mentagrophytes
Excerpt: as §1

Candida albicans = details: for inhibitory activity: in vitro; for MIC: one range stated jointly for Examples 5, 6 and 10 and the three fungi, read-out: minimum inhibitory concentration MIC
Excerpt: as §1

Epidermophyton floccosum = system: Epidermophyton floccosum
Excerpt: as §1

[2] = system: Trichophyton schoenleinii
Excerpt: as §1

Aspergilius fumigatus = details: for activity: in vitro; for MIC: one range stated jointly for Examples 5, 6 and 10 and the three fungi, read-out: minimum inhibitory concentration MIC
Excerpt: as §1

Trichophyton rubrum = details: for activity: in vitro; for MIC: one range stated jointly for Examples 5, 6 and 10 and the three fungi, read-out: minimum inhibitory concentration MIC
Excerpt: as §1

| Structure (SMILES) | MIC (Candida albicans) [µg/mL] | MIC (Aspergilius fumigatus) [µg/mL] | MIC (Trichophyton rubrum) [µg/mL] | inhibitory activity (Trichophyton tonsurans) | inhibitory activity [1] | inhibitory activity (Candida albicans) | inhibitory activity (Epidermophyton floccosum) | inhibitory activity [2] | activity (Aspergilius fumigatus) | activity (Trichophyton rubrum) |
| --- | --- | --- | --- | --- | --- | --- | --- | --- | --- | --- |
| CN1OC(c2ccc(Cl)cc2)CC1(Cn1ccnc1)c1ccco1 (single isomer, unassigned) [Example 1, 5-(4-Chlorophenyl)-3-(2-furanyl)-3-(1H-imidazol-1-ylmethyl) -2-methylisoxazolidine] | – | – | – | good to moderate | good to moderate | good to moderate | good to moderate | good to moderate | – | – |
| CN1OC(COc2ccc(Cl)cc2)CC1(Cn1ccnc1)c1ccco1 (single isomer, unassigned) [Example 3, 5-(4-Chlorophenoxymethyl)-3-(2-furanyl)-3-(1H-imidazol-1-ylmethyl)-2-methylisoxazolidine] | – | – | – | good to moderate | good to moderate | good to moderate | good to moderate | good to moderate | – | – |

Further lines, with some results ahead:

| MIC (Candida albicans) [µg/mL] | MIC (Aspergilius fumigatus) [µg/mL] | MIC (Trichophyton rubrum) [µg/mL] | Structure (SMILES) | inhibitory activity (Trichophyton tonsurans) | inhibitory activity [1] | inhibitory activity (Candida albicans) | inhibitory activity (Epidermophyton floccosum) | inhibitory activity [2] | activity (Aspergilius fumigatus) | activity (Trichophyton rubrum) |
| --- | --- | --- | --- | --- | --- | --- | --- | --- | --- | --- |
| 0.2 to 70 (≈ 0.615 to 215 µM) | 0.2 to 70 (≈ 0.615 to 215 µM) | 0.2 to 70 (≈ 0.615 to 215 µM) | CN1OC(c2ccccc2)CC1(Cn1ccnc1)c1cccs1 (single isomer, unassigned) [Example 5, 3-(1H-Imidazol-1-ylmethyl)-2-methyl-5-phenyl-3-(2-thienyl)isoxazolidine] | – | – | good to moderate | – | – | good to moderate | good to moderate |
| 0.2 to 70 (≈ 0.556 to 195 µM) | 0.2 to 70 (≈ 0.556 to 195 µM) | 0.2 to 70 (≈ 0.556 to 195 µM) | CN1OC(c2ccc(Cl)cc2)CC1(Cn1ccnc1)c1cccs1 (single isomer, unassigned) [Example 6, 5-(4-Chlorophenyl)-3-(1H-imidazol-1-ylmethyl)-2-methyl-3-(2-thienyl)isoxazolidine] | – | – | good to moderate | – | – | good to moderate | good to moderate |
| 0.2 to 70 (≈ 0.519 to 182 µM) | 0.2 to 70 (≈ 0.519 to 182 µM) | 0.2 to 70 (≈ 0.519 to 182 µM) | Cc1ccc(SCC2CC(Cn3ccnc3)(c3cccs3)N(C)O2)cc1 (single isomer, unassigned) [Example 10, 3-(1H-Imidazol-1-ylmethyl)-2-methyl-5-[[(4-methylphenyl)thio]methyl]-3-(2-thienyl)isoxazolidine] | – | – | good to moderate | – | – | good to moderate | good to moderate |
